Source: patent US10399986B2, “Inhibitors of leukotriene A4 hydrolase” (CELTAXSYS, INC., priority 2013, dated 2019)
Values joined by “and” are separate entries in the source; they are usually repeats but may differ in a detail not shown here. Equal entries are not always repeated. Where two headings read alike, the source gives them in different places.

Assays:
cotton top tamarins = details: eight weeks of treatment; cited from earlier work
[1] = test system: ionophore-induced LTB4 production; details: oral administration; mouse blood ex vivo; cited from earlier work
[2] = test system: ionophore-induced LTB4 production; details: oral administration; rat peritoneum in vivo; cited from earlier work
LTA4-h [3] = biological target: T1, LTA4-h (Homo sapiens, UniProt P09960); test: peptidase (aminopeptidase) assay; format: biochemical
T1 sequence (P09960 1-611): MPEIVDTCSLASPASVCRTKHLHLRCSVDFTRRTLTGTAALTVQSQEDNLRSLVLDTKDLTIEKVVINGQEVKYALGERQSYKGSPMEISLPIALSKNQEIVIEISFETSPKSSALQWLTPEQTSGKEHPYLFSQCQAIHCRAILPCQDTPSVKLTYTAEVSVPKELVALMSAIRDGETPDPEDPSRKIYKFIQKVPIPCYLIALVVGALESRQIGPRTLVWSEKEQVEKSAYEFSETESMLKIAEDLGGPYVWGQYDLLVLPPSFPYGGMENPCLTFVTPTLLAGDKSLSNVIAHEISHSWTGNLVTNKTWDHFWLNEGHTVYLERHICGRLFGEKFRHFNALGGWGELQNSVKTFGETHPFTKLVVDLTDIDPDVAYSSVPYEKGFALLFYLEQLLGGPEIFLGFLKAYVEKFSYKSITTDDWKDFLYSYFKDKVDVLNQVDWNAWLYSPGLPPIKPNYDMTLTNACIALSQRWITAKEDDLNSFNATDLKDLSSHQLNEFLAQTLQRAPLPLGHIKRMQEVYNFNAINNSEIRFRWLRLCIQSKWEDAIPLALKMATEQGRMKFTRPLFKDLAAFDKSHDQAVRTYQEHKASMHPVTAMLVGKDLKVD
Description: Since LTA4-h hydrolase is grouped with the M1 family of zinc metalloproteases (see, Rudberg, P. C. et al., J. Biol. Chem. 2002, Vol. 277, page 1398-1404), the compounds of the invention can be tested in the standard hydrolase and peptidase assay to determine the compounds' kinetic constants for binding to LTA4-h hydrolase and for inhibiting LTB4 synthesis (see Askonas, L. J., et al., The Journal of Pharmacology and Experimental Therapeutics 2002, 300(2): 577-582; Penning, T. D., J. Med. Chem. 2000, 43(4): 721-735; Kull, F. et al., The Journal of Biological Chemistry 1999, 274 (49): 34683-34690, the contents of which are expressly incorporated by reference herein).
(§1) The whole blood and aminopeptidase assays were performed as described in Penning et al., J. Med. Chem. 2000, 43, 721-735, and Rudberg et al., J. Biol. Chem. Vol. 279, No. 26, Issue of June 25, pp. 27376-27382, 2004, the contents of each of which are expressly incorporated by reference herein. The hydrolase assay was performed as described in U.S. Pat. No. 7,737,145, the contents of which are expressly incorporated herein.

LTA4-h [4] = biological target: T1, LTA4-h; test: hydrolase assay; format: biochemical
Description: The compounds of the invention can be tested for their ability to inhibit LTA4-h by various known assays and by assays described herein. For example, the compounds can be tested for their ability to inhibit LTA4-h activity by assaying the compounds in the hydrolase-homogeneous time resolved fluorescence assay. This assay, which is a two-step assay, measures the hydrolysis of […] by analyzing the amount of LTB4 produced. The first step involves the enzymatic conversion of […] and the second step involves the quantification of the […] formed with a homogeneous time resolved fluorescence assay.
as §1

LTA4-h hydrolase = biological target: T2, LTA4-h hydrolase (Homo sapiens, UniProt P09960); test: whole blood assay (WBA); format: cell-based
T2 construct: whole blood assay using human, mouse, rat or dog whole blood; from tissue; host or cells: whole blood
T2 sequence (P09960 1-611): T1 sequence (P09960 1-611)
Experimental: Compounds of the invention can also be tested for their ability as inhibitors of LTA4-h hydrolase in the whole blood assay using human, mouse, rat or dog whole blood (see Penning, T. D. et al., J. Med. Chem. (2000), 43(4): 721-735 for a description of a human whole blood assay and a mouse whole blood assay, the contents of which are expressly incorporated herein).
as §1

| Compound | IC50 (LTA4-h [3]) | IC50 (LTA4-h hydrolase) | IC50 (LTA4-h [4]) | also measured |
| --- | --- | --- | --- | --- |
| CN(CCCOc1ccc(Cc2ccccc2)cc1)CCC(=O)O.Cl [SC57461] | – | – | – | colitis symptoms (cotton top tamarins): significantly improved colitis symptoms; inhibition of ionophore-induced LTB4 production [1]: caused inhibition; inhibition of ionophore-induced LTB4 production [2]: caused inhibition |
| N#Cc1c(Nc2ccc(Oc3ccccc3)cc2)nn2cc(C(=O)c3cc([N+](=O)[O-])ccc3O)cnc12 [Compound 4] | 1700 nM | – | – | inhibition at 3 µM (LTA4-h [4]): 48% |
| N#Cc1c(Nc2ccc(Oc3ccccc3)cc2)nn2cc(-c3cccc(C(=O)O)n3)cnc12 [Compound 11] | 270 nM | – | – | – |
| N#Cc1c(Nc2ccc(Oc3ccccc3)cc2)nn2cc(-c3ccc(C(=O)O)cc3[N+](=O)[O-])cnc12 [Compound 10] | 120 nM | – | – | inhibition at 1 µM (LTA4-h [4]; at 1 uM): 20% |
| N#Cc1c(Nc2ccc(Oc3ccccc3)cc2)nn2cc(-c3cc(C(=O)O)ccc3[N+](=O)[O-])cnc12 [Compound 3] | 430 nM | > 10000 nM | – | inhibition at 3 µM (LTA4-h [4]): 39% |
| N#Cc1c(Nc2ccc(Oc3ccccc3)cc2)nn2cc(-c3ccc(C(=O)O)cn3)cnc12 [Compound 12] | 84 nM | – | – | – |
| N#Cc1c(Nc2ccc(Oc3ccccc3)cc2)nn2cc(N)cnc12 [Compound 1] | 280 nM | > 8800 nM | 1500 nM | – |
| N#Cc1c(Nc2ccc(Oc3ccccc3)cc2)nn2cc(C(=O)c3cc(Cl)cc(Cl)c3O)cnc12 [Compound 6] | 960 nM | – | – | inhibition at 3 µM (LTA4-h [4]): 15% |
| 2-(4-phenoxyphenylamino)-3-cyano-6-(2-nitro-3-hydroxycarboxyphenyl)pyrazolo[1,5-a]pyrimidine [Compound 9] | 3.3 nM | – | – | Hydrolase % inhibition (LTA4-h [4]; at 1 uM): 20% inhibition at 1 uM |
| CS(=O)(=O)c1ccc(-c2cnc3c(C#N)c(Nc4ccc(Oc5ccccc5)cc4)nn3c2)c([N+](=O)[O-])c1 [Compound 2] | 260 nM | > 7200 nM | 3700 nM | – |
| N#Cc1c(Nc2ccc(Oc3ccccc3)cc2)nn2cc(C(=O)c3cc(Cl)ccc3O)cnc12 [Compound 7] | 30 nM and 10 nM | 4600 nM and 3000 nM | 1600 nM and 2900 nM | – |
| N#Cc1c(Nc2ccc(Oc3ccccc3)cc2)nn2cc(C(=O)c3ccccc3O)cnc12 [Compound 5] | 90 nM and 20 nM | 4900 nM and 3000 nM | 1400 nM and 490 nM | – |
